Results: ChEMBL document CHEMBL2010706, “Microfluidic technology: an economical and versatile approach for the synthesis of O-(2-[18F]fluoroethyl)-L-tyrosine ([18F]FET)” (Bioorg Med Chem Lett, 2012)

Experiments:
[1] = tested on: Muscle tissue; test: Drug uptake in Balb/c mouse muscle after 10 mins by PET analysis; type: ADME, tissue-based; conditions: in vivo
[2] = Drug uptake in mouse EMT6 tumor xenografted in Balb/c mouse after 30 mins by PET analysis; type: ADME, Neoplasm; conditions: in vivo, 0.5 h
[3] = Drug uptake in mouse EMT6 tumor xenografted in Balb/c mouse assessed per mg of protein after 100 mins by PET analysis; type: ADME, Neoplasm; conditions: in vivo
[4] = Drug uptake in mouse EMT6 tumor xenografted in Balb/c mouse assessed per mg of protein after 15 mins by PET analysis; type: ADME, Neoplasm; conditions: in vivo, 0.25 h
[5] = tested on: Nucleic Acid; test: Ratio of drug uptake in tumor to muscle of Balb/c mouse after 60 mins […] by PET analysis; type: ADME, nucleic-acid assay; conditions: in vivo, 1 h
[6] = tested on: Muscle tissue; test: Drug uptake in Balb/c mouse muscle after 30 to 60 mins by PET analysis; type: ADME, tissue-based; conditions: in vivo
[7] = Drug uptake in mouse EMT6 tumor xenografted in Balb/c mouse after 60 mins by PET analysis; type: ADME, Neoplasm; conditions: in vivo, 1 h

For `N[C@@H](Cc1ccc(OCC[18F])cc1)C(=O)O` [FLORETYROSINE F18], the Drug uptake [1] was “Active”, the SUV [2] was 1.28 and the Drug uptake [3] was 60 %ID. The Drug uptake [4] was 105 %ID, the Ratio [5] was 4.04 and the Drug uptake [6] was “Not Active”. The SUV [7] was 1.21.
